{
  "source": "the supplement of paper PMC12076712",
  "assay_in_all_cases": "pIC50, kinobeads binding competition",
  "conditions_in_all_cases": "cell material: Jurkat lysate",
  "key": {"ZAP70": {"biological_target": "T1, ZAP70 (UniProt P43403)", "T1 sequence (whole entry)": "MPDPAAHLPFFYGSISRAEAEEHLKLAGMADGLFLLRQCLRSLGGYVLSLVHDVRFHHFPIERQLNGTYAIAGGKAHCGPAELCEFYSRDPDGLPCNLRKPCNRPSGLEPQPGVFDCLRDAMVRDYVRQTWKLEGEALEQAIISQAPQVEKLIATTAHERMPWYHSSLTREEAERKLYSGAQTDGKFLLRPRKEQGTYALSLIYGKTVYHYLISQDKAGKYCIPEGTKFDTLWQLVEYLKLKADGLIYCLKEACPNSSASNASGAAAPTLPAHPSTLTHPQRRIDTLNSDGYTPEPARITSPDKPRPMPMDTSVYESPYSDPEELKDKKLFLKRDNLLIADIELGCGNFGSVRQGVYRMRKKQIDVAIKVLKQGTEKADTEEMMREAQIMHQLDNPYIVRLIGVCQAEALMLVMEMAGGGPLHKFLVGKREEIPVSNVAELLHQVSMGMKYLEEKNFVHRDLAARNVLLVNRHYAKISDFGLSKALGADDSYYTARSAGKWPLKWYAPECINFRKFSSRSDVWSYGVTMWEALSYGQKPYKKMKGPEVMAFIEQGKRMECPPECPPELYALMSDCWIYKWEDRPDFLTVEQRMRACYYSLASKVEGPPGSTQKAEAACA"}, "TAOK2": {"biological_target": "T2, TAOK2 (UniProt Q9UL54)", "T2 sequence (whole entry)": "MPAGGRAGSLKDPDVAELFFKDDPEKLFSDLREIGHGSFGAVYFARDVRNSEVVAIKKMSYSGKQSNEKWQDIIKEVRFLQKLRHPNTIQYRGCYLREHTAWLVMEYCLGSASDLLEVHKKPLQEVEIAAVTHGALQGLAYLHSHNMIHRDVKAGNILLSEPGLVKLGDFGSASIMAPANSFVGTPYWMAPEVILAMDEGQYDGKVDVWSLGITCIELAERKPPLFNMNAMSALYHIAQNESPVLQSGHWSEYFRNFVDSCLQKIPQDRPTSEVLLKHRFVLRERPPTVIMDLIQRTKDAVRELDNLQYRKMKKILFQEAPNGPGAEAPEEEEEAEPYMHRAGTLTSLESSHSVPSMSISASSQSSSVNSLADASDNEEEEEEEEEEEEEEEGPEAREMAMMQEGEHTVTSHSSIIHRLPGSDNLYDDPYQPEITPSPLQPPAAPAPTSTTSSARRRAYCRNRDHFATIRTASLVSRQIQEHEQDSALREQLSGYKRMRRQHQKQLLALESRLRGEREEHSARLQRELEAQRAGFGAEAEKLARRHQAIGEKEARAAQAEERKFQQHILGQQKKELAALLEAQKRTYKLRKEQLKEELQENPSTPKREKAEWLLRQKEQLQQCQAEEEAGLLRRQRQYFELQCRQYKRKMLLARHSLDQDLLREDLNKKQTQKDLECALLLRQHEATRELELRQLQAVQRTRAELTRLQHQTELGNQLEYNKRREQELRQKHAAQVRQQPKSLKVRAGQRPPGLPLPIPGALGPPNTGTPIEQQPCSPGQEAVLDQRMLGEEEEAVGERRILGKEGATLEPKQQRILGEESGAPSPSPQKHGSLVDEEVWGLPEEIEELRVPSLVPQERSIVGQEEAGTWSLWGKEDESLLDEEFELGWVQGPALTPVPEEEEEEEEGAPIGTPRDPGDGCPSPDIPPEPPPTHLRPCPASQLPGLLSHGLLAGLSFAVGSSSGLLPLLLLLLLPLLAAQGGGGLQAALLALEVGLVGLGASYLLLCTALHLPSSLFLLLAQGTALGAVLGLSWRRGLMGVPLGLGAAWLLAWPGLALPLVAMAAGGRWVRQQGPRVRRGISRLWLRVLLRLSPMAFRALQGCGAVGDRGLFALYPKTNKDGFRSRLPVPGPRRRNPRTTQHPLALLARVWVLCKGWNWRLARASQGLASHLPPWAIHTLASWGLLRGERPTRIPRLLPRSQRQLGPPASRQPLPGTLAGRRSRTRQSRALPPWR"}, "UniProt P35626": {"biological_target": "T3, UniProt P35626", "T3 sequence (whole entry)": "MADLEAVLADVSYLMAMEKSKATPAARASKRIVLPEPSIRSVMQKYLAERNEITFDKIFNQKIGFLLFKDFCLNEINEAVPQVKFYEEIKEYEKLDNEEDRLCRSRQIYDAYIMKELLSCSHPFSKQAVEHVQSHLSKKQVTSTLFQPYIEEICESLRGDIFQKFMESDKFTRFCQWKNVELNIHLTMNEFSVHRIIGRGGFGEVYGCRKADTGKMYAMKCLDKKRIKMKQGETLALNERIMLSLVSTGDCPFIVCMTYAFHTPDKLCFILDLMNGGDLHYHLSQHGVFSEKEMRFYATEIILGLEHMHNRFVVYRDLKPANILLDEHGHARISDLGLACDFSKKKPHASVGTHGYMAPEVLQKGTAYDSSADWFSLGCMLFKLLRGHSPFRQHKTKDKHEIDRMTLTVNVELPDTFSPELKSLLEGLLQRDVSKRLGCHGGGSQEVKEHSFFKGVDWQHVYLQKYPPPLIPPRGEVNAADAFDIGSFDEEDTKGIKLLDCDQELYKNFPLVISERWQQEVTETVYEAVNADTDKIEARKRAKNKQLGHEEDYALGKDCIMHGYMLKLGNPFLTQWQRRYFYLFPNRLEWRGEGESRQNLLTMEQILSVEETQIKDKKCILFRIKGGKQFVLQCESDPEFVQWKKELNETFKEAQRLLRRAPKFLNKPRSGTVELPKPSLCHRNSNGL"}},
  "note": "± gives the standard deviation of the averaged measurements.",
  "data": [
    {"smiles": "CCc1cnn2c(NCc3ccc[n+]([O-])c3)cc(N3CCCC[C@H]3CCO)nc12", "note": "[dinaciclib]", "values": [
      {"measurement": "pIC50", "setting": "ZAP70", "value": "< 4.52"},
      {"measurement": "pIC50", "setting": "TAOK2", "value": "5.6 ± 0.085"},
      {"measurement": "pIC50", "setting": "UniProt P35626", "value": "< 4.52"}
    ]}
  ]
}
